Results taken from US20260028382A1, “IMMUNOGENIC PEPTIDES AND THEIR USES IN CANCER DIAGNOSIS AND THERAPY” (The Chinese University of Hong Kong, priority 2024, published 2026).

System: CD8+ T cells
Assay: IFN-γ ELISpot assay of peptide immunogenicity (peptide-pulsed DC:CD8+ T cell co-culture)
Assay type: cell-based, human
Description: We obtained peripheral mononuclear cells (PBMCs) from healthy donor buffy coat samples via density gradient centrifugation. We utilized QIAamp DNA Blood Kits (Qiagen) to isolate DNA for HLA typing with LinkSeq™ HLA-ABCDRDQDP+ 384 Kit (One Lambda) on a QuantStudio™ 7 Flex Real-Time PCR System. Human T and dendritic cells (DCs) were enriched from PBMCs using a CD8 cell isolation kit and Pan-DC enrichment kit (Miltenyi Biotec), respectively, and subsequently cultured in RPMI-1640 medium (Life Technologies) supplemented with 10% FBS and 100 U/mL of Penicillin-Streptomycin.
Dendritic cells (DCs) were pulsed with a 10 μg mL^−1 peptide concentration at a cell density of 10^5 cells/mL for 4 hours at 37° C. Following this, the DCs were mixed with autologous CD8+ T cells at a DC:T cell ratio of 1:10. The cell mixture was then aliquoted into an ELISpot plate at 100 μL per well and incubated for 24 hours. The secreted IFN-γ signal was detected using the ELISpot Plus Human IFN-γ (ALP) kit (Mabtech). […]
We utilized ELISpot assay, which quantifies cytokine IFN-γ releasing by CD8^+ T lymphocytes isolated from PBMCs of healthy subjects, to verify the immunogenic potential of candidate peptides. […] We co-cultured pan-DCs loaded with the candidate peptides with autologous CD8′ T cells for 24 hours and assessed the secretion of IFN-γ as an indicator of T-cell activation and immunogenicity.

Sequence	T cell response (IFN-γ secretion) (peptide concentration of 1 ug mL^−1, DC:CD8+ T cell co-culture, 24 hours, healthy donors)	immunogenicity demonstrated in the ELISpot analysis
MCDEDETTA [Actin1-9, peptide derived from human Actin within the amino acid region 1-9, negative control]	negligible response	
STIHLASQFTK (Description of sequence: non-canonical peptide, associated gene: CRYBG1, classification: CDS (frame-shift), short form name: p9; listed as Homo sapiens)		strong immunogenicity
